Read-outs that look alike come from different tables or passages of the source. Each block holds one substance with its values, some of them ahead of it. No end group written: not given here.
Columns and labels:
β-Klotho = molecular target: T1, β-Klotho (Homo sapiens, UniProt Q86Z14); experiment: AlphaScreen competition binding assay (inhibition of β-Klotho binding to biotinylated FGF19 or FGF21); conditions: Suppl Fig S6A, 20 nM β-Klotho ECD 6×His, 40 nM biotinylated human FGF21, d.n.c. = did not converge
T1 construct: the ECD of human β-Klotho (aa1–992) fused with a 6 × His tag at the C-terminus; made in house
T1 sequence (Q86Z14 1-992): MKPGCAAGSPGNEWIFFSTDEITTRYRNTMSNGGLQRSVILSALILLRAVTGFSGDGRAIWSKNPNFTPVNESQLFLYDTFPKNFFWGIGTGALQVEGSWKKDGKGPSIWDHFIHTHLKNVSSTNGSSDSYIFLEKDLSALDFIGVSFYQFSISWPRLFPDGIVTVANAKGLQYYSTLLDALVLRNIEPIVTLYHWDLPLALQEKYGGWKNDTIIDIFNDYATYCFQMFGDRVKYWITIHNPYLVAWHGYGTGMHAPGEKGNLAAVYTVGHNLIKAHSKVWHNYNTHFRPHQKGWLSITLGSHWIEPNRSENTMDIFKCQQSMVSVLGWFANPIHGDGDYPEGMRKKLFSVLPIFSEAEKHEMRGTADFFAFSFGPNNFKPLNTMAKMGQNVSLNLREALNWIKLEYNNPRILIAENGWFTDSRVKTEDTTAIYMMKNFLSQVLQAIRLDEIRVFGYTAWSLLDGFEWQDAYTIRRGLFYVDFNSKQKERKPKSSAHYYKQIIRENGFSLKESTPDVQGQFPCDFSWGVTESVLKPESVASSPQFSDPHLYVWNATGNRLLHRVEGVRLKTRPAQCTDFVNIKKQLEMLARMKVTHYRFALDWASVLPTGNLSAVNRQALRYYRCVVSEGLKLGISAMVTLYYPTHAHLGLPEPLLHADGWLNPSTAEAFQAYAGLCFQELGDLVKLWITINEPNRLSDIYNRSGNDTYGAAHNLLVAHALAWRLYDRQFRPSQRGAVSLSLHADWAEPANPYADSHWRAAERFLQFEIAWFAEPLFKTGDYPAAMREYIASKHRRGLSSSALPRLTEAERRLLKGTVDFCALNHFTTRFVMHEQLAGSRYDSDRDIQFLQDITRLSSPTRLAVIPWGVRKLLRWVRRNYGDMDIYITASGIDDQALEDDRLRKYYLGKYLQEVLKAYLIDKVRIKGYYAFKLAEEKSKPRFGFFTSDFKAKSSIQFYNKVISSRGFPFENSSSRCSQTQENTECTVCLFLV
Description: FGF19 and FGF21 C-terminal WT and mutant peptides were custom synthesized and purified (>95% purity) (LifeTein LLC, South Plainfield, NJ). Binding of FGF19 and FGF21 peptides to β-Klotho was assessed using an AlphaScreen® assay. Briefly, 20 nM of β-Klotho ECD 6 × His, varying amounts of FGF19 and 21 peptides, and 40 nM of biotinylated human FGF19 or FGF21 protein were prepared in AlphaLISA universal buffer (PerkinElmer) and added to individual wells in 384-well white opaque plates (Greiner Bio-One). Subsequently, streptavidin donor beads and nickel chelate (Ni-NTA) acceptor beads (AlphaScreen Histidine detection kit; PerkinElmer) were diluted to 40 µg/mL and added to the plates. Total reaction volume was 8 µL. Plates were incubated for 3 hours at room temperature protected from light and read on the EnVision Multilabel Plate Reader (PerkinElmer) according to the manufacturer’s instructions. Assays were performed in triplicate. IC50 values were determined from a three-parameter logistic regression model with the least squares fit using GraphPad Prism version 7.

[1] = test system: FGFR (expressed endogenously in HEK293T reporter cells); experiment: Elk1-luciferase reporter assay in HEK293T reporter cells without β-Klotho (no KLB); assay type: cell-based, human; conditions: d.n.c = did not converge
Description: To measure the signaling activity of β-Klotho mutants, ELK luciferase assay was performed in HEK293T cells that were stably transfected with reporter constructs containing 5 × UAS upstream of luciferase and Gal4 DNA-binding domain fused to ELK1. Briefly, HEK293T reporter cells were maintained in DMEM supplemented with 10% (v/v) FBS (Gibco) and 2 mM GlutaMax (Gibco) in a 37 °C incubator with 5% CO2. Cells were plated on 96-well plates in growth medium and incubated overnight. […] Cells were serum-starved in DMEM supplemented with 5% (v/v) FBS (Gibco) and 2 mM GlutaMax (Gibco) overnight the day after transfection and treated with FGF21 for 6 hours at 37 °C with 5% CO2, after which the cells were lysed in Bright-Glo luciferase reagent (Promega). Luciferase activity was measured in relative luminescence units on the EnVision Multilabel Plate Reader (PerkinElmer) according to the manufacturer’s instructions. All assays were performed in duplicates. EC50 values were determined from a three-parameter logistic regression model with the least squares fit using GraphPad Prism version 7.

β-Klotho/FGFR complex = experiment: Elk1-luciferase reporter assay in HEK293T reporter cells transiently transfected with full-length WT β-Klotho; assay type: cell-based, human; conditions: 6 h treatment, mean ± SD of three independent experiments, read-out: EC50, stimulation of Elk1-luciferase reporter activity (KLB WT)
Description: To measure the signaling activity of β-Klotho mutants, ELK luciferase assay was performed in HEK293T cells that were stably transfected with reporter constructs containing 5 × UAS upstream of luciferase and Gal4 DNA-binding domain fused to ELK1. Briefly, HEK293T reporter cells were maintained in DMEM supplemented with 10% (v/v) FBS (Gibco) and 2 mM GlutaMax (Gibco) in a 37 °C incubator with 5% CO2. Cells were plated on 96-well plates in growth medium and incubated overnight. The next day, cells were transfected with expression vectors encoding full-length β-Klotho WT or mutants using the Lipofectamine 2000 transfection reagent (Invitrogen) according to the manufacturer’s protocol. Cells were serum-starved in DMEM supplemented with 5% (v/v) FBS (Gibco) and 2 mM GlutaMax (Gibco) overnight the day after transfection and treated with FGF21 for 6 hours at 37 °C with 5% CO2, after which the cells were lysed in Bright-Glo luciferase reagent (Promega). Luciferase activity was measured in relative luminescence units on the EnVision Multilabel Plate Reader (PerkinElmer) according to the manufacturer’s instructions. All assays were performed in duplicates. EC50 values were determined from a three-parameter logistic regression model with the least squares fit using GraphPad Prism version 7.

Substance: PQPPDVGSSDPLSMVGPSQGASPSYAS [203R-A]
IC50 (β-Klotho; read-out: IC50, competition with FGF21 (FGF21 C-terminal peptides)): 7.3 nM

Substance: PQPPDVGSSDALSMVGPSQGRSPSYAS [193P-A]
IC50, competition with FGF21 (FGF21 C-terminal peptides) (β-Klotho): d.n.c

Substance: PQPPDAGSSDPLSMVGPSQGRSPSYAS [188V-A]
IC50, competition with FGF21 (FGF21 C-terminal peptides) (β-Klotho): d.n.c

The next lines start with results.

EC50 (β-Klotho/FGFR complex; Fig 3A): 0.038 ± 0.024 nM
Substance: FGF1: a prototypical paracrine FGF [reference compound]
EC50 ([1]; Fig 3A, mean ± SD of three independent experiments, read-out: EC50, stimulation of Elk1-luciferase reporter activity (no KLB)): 0.049 ± 0.037 nM

EC50 (β-Klotho/FGFR complex; Fig 3D): 2.88 ± 1.43 nM
Substance: FGF19: mature human FGF19 protein, endocrine fibroblast growth factor
EC50, stimulation of Elk1-luciferase reporter activity (no KLB) ([1]; Fig 3D): d.n.c
